From ChEMBL document CHEMBL3751684, “2,3-Dihydrobenzofuran privileged structures as new bioinspired lead compounds for the design of mPGES-1 inhibitors” (Bioorg Med Chem, 2016)
Calls of active or inactive are those of the source. No cut-off for these calls is given here.

Legend:
[1] = molecular target: T1, Prostaglandin E synthase (Homo sapiens) (UniProt O14684); experiment: Inhibition of PGES-1 in IL-1beta stimulated human A549 cell microsomes using PGH2 as substrate assessed as suppression of PGE2 formation at 10 uM preincubated for 15 mins followed by substrate addition by reversed phase-HPLC analysis
T1 sequence (whole entry): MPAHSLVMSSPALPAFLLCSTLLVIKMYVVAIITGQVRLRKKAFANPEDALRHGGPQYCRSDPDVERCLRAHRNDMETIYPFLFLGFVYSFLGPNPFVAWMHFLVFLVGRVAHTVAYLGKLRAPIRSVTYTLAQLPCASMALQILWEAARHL

Prostaglandin E synthase = molecular target: T2, Prostaglandin E synthase (Homo sapiens, UniProt O14684); experiment: Inhibition of PGES-1 in IL-1beta stimulated human A549 cell microsomes using PGH2 as substrate assessed as suppression of PGE2 formation preincubated for 15 mins followed by substrate addition by reversed phase-HPLC analysis
T2 sequence (O14684 whole entry): T1 sequence (whole entry)

| SMILES | inhibition [1] | IC50 (Prostaglandin E synthase) |
| --- | --- | --- |
| O=C(/C=C/c1cc(O)c2c(c1)[C@@H](C(=O)OCCc1ccccc1)[C@H](c1ccc(O)c(O)c1)O2)OCCc1ccccc1 (racemic) [listing 1 of 2 here] | Active |  |
| O=C(/C=C/c1cc(O)c2c(c1)[C@H](C(=O)OCCc1ccccc1)[C@@H](c1ccc(O)c(O)c1)O2)OCCc1ccccc1 |  | 2800 nM |
| COC(=O)/C=C/c1cc(O)c2c(c1)[C@@H](C(=O)OC)[C@H](c1ccc(O)c(O)c1)O2 (racemic) | Active | 8500 nM |
| CCCCOC(=O)/C=C/c1cc(O)c2c(c1)[C@@H](C(=O)OCCCC)[C@H](c1ccc(O)c(O)c1)O2 (racemic) | Active | 2100 nM |
| CCOC(=O)/C=C/c1cc(O)c2c(c1)[C@@H](C(=O)OCC)[C@H](c1ccc(O)c(O)c1)O2 (racemic) | Active | 3600 nM |

The next lines start with the values.

| inhibition [1] | IC50 (Prostaglandin E synthase) | SMILES |
| --- | --- | --- |
| Active |  | COc1cc(/C=C/c2ccc3c(c2)[C@@H](c2cc(OC)cc(OC)c2)[C@H](c2ccc(O)cc2)O3)cc(OC)c1 (racemic) |
| inactive |  | C=Cc1ccc(/C=C/c2ccc3c(c2)[C@@H](c2ccc(C=C)cc2)[C@H](c2ccc(O)cc2)O3)cc1 (racemic) |
|  | 2000 nM | O=C(/C=C/c1cc(O)c2c(c1)[C@@H](C(=O)OCCc1ccccc1)[C@H](c1ccc(O)c(O)c1)O2)OCCc1ccccc1 (racemic) [listing 2 of 2 here] |
| Active |  | COc1ccc(/C=C/c2ccc3c(c2)[C@@H](c2ccc(OC)cc2)[C@H](c2ccc(O)cc2)O3)cc1 (racemic) |
| Active |  | COc1cc([C@@H]2Oc3c(OC)cc(/C=C/c4cc(OC)c(OC)c(OC)c4)cc3[C@H]2c2cc(OC)c(OC)c(OC)c2)ccc1O (racemic) |
|  | 2100 nM | O=C(/C=C/c1cc(O)c2c(c1)[C@@H](C(=O)OCCc1ccccc1)[C@H](c1ccc(O)c(O)c1)O2)OCCc1ccccc1 |
